In PubChem BioAssay AID1918998 (Molecular Pharmacology Branch, DTP, NCI, 2023) one finds IC50 and viability, T/C data, which are given here for 4 molecules.

The test relates to 521955-158-R2-J5-PDC complex spheroid growth. Put plainly: Anticancer human tumor 521955-158-R2-J5-PDC patient-derived pancreatic carcinoma cell line growth inhibition [AhR]. Conditions: for viability, T/C: stronger effect = lower value. The method, boiled down:
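Spheroids combined tumor cells with HUVEC endothelial cells and human MSCs as stroma. AhR antagonists were paired with standard or investigational drugs, each dosed in half-log steps down from near clinical Cmax, or from 10 microM where Cmax was unknown.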

Setting [1] is: curve of first compound, second compound 0.1 µM.
The mark [2] stands for this setting: curve of first compound, second compound 0.316 µM.
Where [3] appears, read: curve of first compound, second compound 1 µM.
The mark [4] stands for this setting: curve of first compound, second compound 3.16 µM.
[5] abbreviates: curve of first compound, second compound 10 µM.
The mark [6] stands for this setting: second compound 0.1 µM, first compound 0.0316 µM.
Where [7] appears, read: second compound 0.1 µM, first compound 0.1 µM.
[8] abbreviates: second compound 0.1 µM, first compound 0.316 µM.
Setting [9] is: second compound 0.1 µM, first compound 1 µM.
Setting [10] is: second compound 0.1 µM, first compound 3.16 µM.
The mark [11] stands for this setting: second compound 0.1 µM, first compound 10 µM.
[12] abbreviates: second compound 0.316 µM, first compound 0.0316 µM.
[13] abbreviates: second compound 0.316 µM, first compound 0.1 µM.
The mark [14] stands for this setting: second compound 0.316 µM, first compound 0.316 µM.
The mark [15] stands for this setting: second compound 0.316 µM, first compound 1 µM.
Where [16] appears, read: second compound 0.316 µM, first compound 3.16 µM.
Where [17] appears, read: second compound 0.316 µM, first compound 10 µM.
[18] abbreviates: second compound 1 µM, first compound 0.0316 µM.
The mark [19] stands for this setting: second compound 1 µM, first compound 0.1 µM.
Setting [20] is: second compound 1 µM, first compound 0.316 µM.
[21] abbreviates: second compound 1 µM, first compound 1 µM.
Where [22] appears, read: second compound 1 µM, first compound 3.16 µM.
Where [23] appears, read: second compound 1 µM, first compound 10 µM.
Where [24] appears, read: second compound 3.16 µM, first compound 0.0316 µM.
[25] abbreviates: second compound 3.16 µM, first compound 0.1 µM.
[26] abbreviates: second compound 3.16 µM, first compound 0.316 µM.
The mark [27] stands for this setting: second compound 3.16 µM, first compound 1 µM.
Setting [28] is: second compound 3.16 µM, first compound 3.16 µM.
[29] abbreviates: second compound 3.16 µM, first compound 10 µM.
Where [30] appears, read: second compound 10 µM, first compound 0.0316 µM.
Where [31] appears, read: second compound 10 µM, first compound 0.1 µM.
Setting [32] is: second compound 10 µM, first compound 0.316 µM.
[33] abbreviates: second compound 10 µM, first compound 1 µM.
Where [34] appears, read: second compound 10 µM, first compound 3.16 µM.
Where [35] appears, read: second compound 10 µM, first compound 10 µM.

Where “and” joins values, the source holds several entries; their conditions need not be identical. Equal values may be shown once.
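Throughout, for viability, T/C: spheroids mix tumor cells with HUVEC endothelium and human MSC stroma; luminescence taken as viability surrogate after a week of drug exposure.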

Take `CC1COCCN1c1cc(C2(S(C)(=N)=O)CC2)nc(-c2ccnc3[nH]ccc23)n1` (stereo not drawn) + Cc1cncc(-c2nc(NCCc3c[nH]c4ccccc34)c3ncn(C(C)C)c3n2)c1: the IC50 worked out at 2.45 µM under setting [1]; 2.57 µM under setting [2]; 2.59 µM under setting [3]; 2.64 µM under setting [4]; 2.47 µM under setting [5]. Besides, the viability, T/C under setting [6] is 115%; the viability, T/C under setting [7] was 108%; the viability, T/C under setting [8] is 114%; the viability, T/C under setting [9] is 107%; the viability, T/C under setting [10] is 33.8%; the viability, T/C under setting [11] is 15.5%. For the same molecule, the viability, T/C by setting is: under setting [12], 125%; under setting [13], 131%; under setting [14], 105%; under setting [15], 118%; under setting [16], 35.1%; under setting [17], 14.4%. In addition, the viability, T/C runs as follows: under setting [18], 140%; under setting [19], 138%; under setting [20], 131%; under setting [21], 128%; under setting [22], 33.5%; under setting [23], 15.5%. Moreover, the viability, T/C is 139% under setting [24]; 142% under setting [25]; 154% under setting [26]; 128% under setting [27]; 35.7% under setting [28]; 14.5% under setting [29]. Also, the viability, T/C runs as follows: under setting [30], 130%; under setting [31], 132%; under setting [32], 139%; under setting [33], 111%; under setting [34], 33.9%; under setting [35], 14.3%.
Consider `Cc1cncc(-c2nc(NCCc3c[nH]c4ccccc34)c3ncn(C(C)C)c3n2)c1`, for which the 50% inhibitory concentration (IC50) (compound alone, run of 06/06/2022) was more than 10 µM.
As to `COc1cccc2c1C(=O)c1c(O)c3c(c(O)c1C2=O)CC(O)(C(=O)CO)CC3OC1CC(N)C(O)C(C)O1` (stereo not drawn) + CC(CO)NC(=O)c1cc(-c2ccc(Cl)cc2)nn(-c2cnn(C)c2)c1=O, the IC50 is, setting by setting: under setting [1], less than 0.0316 µM; under setting [2], 0.0501 µM; under setting [3], 0.0533 µM; under setting [4], less than 0.0316 µM; under setting [5], 0.0387 µM. For the same molecule, the viability, T/C is 49.1% under setting [6]; 45.1% under setting [7]; 28% under setting [8]; 2.42% under setting [9]; 7.75% under setting [10]; 13.9% under setting [11]. The viability, T/C runs as follows: under setting [12], 54.6%; under setting [13], 42.6%; under setting [14], 24.5%; under setting [15], 2.21%; under setting [16], 5.07%; under setting [17], 13.4%. Also, the viability, T/C runs as follows: under setting [18], 56.4%; under setting [19], 41.7%; under setting [20], 24.1%; under setting [21], 9.29%; under setting [22], 2.9%; under setting [23], 14.6%. The viability, T/C reads like this: under setting [24], 50.7%; under setting [25], 41.8%; under setting [26], 25.8%; under setting [27], 8.77%; under setting [28], 7.63%; under setting [29], 14%. In addition, the viability, T/C was 52.9% under setting [30]; 37% under setting [31]; 18.7% under setting [32]; 6.31% under setting [33]; 6.29% under setting [34]; 13.8% under setting [35].
`CC1COCCN1c1cc(C2(S(C)(=N)=O)CC2)nc(-c2ccnc3[nH]ccc23)n1` (stereo not drawn): the viability, T/C is, setting by setting: (compound 0.0316 µM) 100% and 91.6% and 125%; (compound 0.1 µM) 108% and 93.5% and 106%; (compound 0.316 µM) 107% and 85.8% and 101%; (compound 1 µM) 114% and 85.9% and 106%; (compound 3.16 µM) 34.1% and 30.7% and 22.6%; (compound 10 µM) 18.6% and 15.7% and 17.3%. Further, under “curve of compound”, the half-maximal inhibitory concentration (IC50) was 2.47 µM and 2.11 µM and 2.16 µM.

For orientation: IC50 means the concentration at which inhibition is half-maximal. What is called viability, T/C is the result in the treated group divided by that in the control group, in per cent.
